System: HeLa cells
Assay: MTT cytotoxicity test in HeLa cells
Type: cell-based
Settings: different concentrations, FIG. 4
Experimental: Each of Dox and albumin-peptide-Dox at different concentrations was added to HeLa cells and then a 3-(4,5-dimethylthiazol-2-yl)-2,5-diphenyltetrazolium bromide (MTT) assay was performed to evaluate cytotoxicity.

SMILES: COc1cccc2c1C(=O)c1c(O)c3c(c(O)c1C2=O)C[C@@](O)(C(=O)CO)C[C@@H]3O[C@H]1C[C@H](N)[C@H](O)[C@H](C)O1 [Dox, doxorubicin]
- cytotoxicity (MTT assay): the level of cytotoxicity was increased in proportion to the concentration
